Data as given in article PMC6543911, “Discovery of Coumarin as Microtubule Affinity-Regulating Kinase 4 Inhibitor That Sensitize Hepatocellular Carcinoma to Paclitaxel” (Frontiers in Chemistry, 2019).

Each molecule was assayed against T1, MARK4 catalytic domain (Homo sapiens, UniProt Q96L34) (assay: Kinase activity assay (ADP-Glo) using MARK4 as enzyme). Conditions: MARK4 5 nM, 100 μM ATP, 5 μM MAP4, 30 min; duplicate, means ± SEM.
T1 construct: The recombinant MARK4 catalytic domain was used as kinase; made in house; host or cells: E. coli BL21 (DE3)
T1 sequence (Q96L34 59-310 limits assumed): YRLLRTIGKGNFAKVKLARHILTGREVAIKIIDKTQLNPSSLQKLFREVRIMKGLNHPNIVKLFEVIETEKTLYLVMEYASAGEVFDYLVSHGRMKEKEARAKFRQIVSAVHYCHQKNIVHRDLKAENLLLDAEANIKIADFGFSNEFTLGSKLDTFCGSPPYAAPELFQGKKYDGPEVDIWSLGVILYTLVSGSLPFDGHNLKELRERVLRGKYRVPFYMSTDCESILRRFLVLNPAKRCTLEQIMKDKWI
Format: biochemical
Method: MARK4 catalytic domain sequence was subcloned into pET-28a vector. Protein expression in E. coli. BL21 (DE3) was induced by IPTG overnight at 16°C, and the cells were then pelleted by centrifugation at 4,000 rpm for 15 min and resuspended in 20 mL buffer (20 mM Tris-HCl, 150 mM NaCl, 25 mM imidazole pH 8.0). Proteins were purified by nickel-affinity chromatography followed by thrombin cleavage. The proteins were further purified by size-exclusion chromatography using a Superdex 75 column (GE Healthcare).
The kinase activity of MARK4 was measured via ADP-Glo™ kinase assay kit (Promega, USA) under manufacturer's instruction. The recombinant MARK4 catalytic domain was used as kinase. MARK4 (5 nM) activity was tested in a reaction (10 μL) containing 25 mM Tris (pH 7.6), 10 mM MgCl2, 150 mM NaCl, 1 mM EDTA, 1 mM DTT, 100 μM ATP, 5 μM MAP4 and varied concentrations of samples for 30 min. The reaction progress was monitored on Thermo Scientific Varioskan Flash Multimode Reader. Each data point was collected in duplicate and kinetic parameters were obtained using GraphPad Prism v6.0 software.
For `O=c1oc2c(Cl)cc(Cl)cc2cc1-c1ccccc1` [Compound 27], the IC50 was 42.1 ± 3.99 µM.
`COc1ccc(-c2cc3cc(Br)cc(OC)c3oc2=O)cc1` [Compound 34] gave an IC50 greater than 50 µM.
Molecule `COc1ccc(-c2cc3ccccc3oc2=O)cc1OC` [Compound 28] has an IC50 greater than 50 µM.
For `COc1cc(OC)c2c(C)cc(=O)oc2c1` [Compound 58], the IC50 was greater than 50 µM.
Work on `CCOc1cccc2ccc(=O)oc12` [Compound 7] yielded an IC50 greater than 50 µM.
Work on `COc1cc(Br)cc2cc(-c3ccc(OC(C)=O)cc3)c(=O)oc12` [Compound 42] yielded an IC50 greater than 50 µM.
`COc1ccccc1-c1cc2cc(Cl)cc(Cl)c2oc1=O` [Compound 26] was tested, and the IC50 was greater than 50 µM.
In the case of `Cc1ccc2oc(=O)ccc2c1` [Compound 6], the IC50 is reported as greater than 50 µM.
In the case of `COc1cccc(-c2cc3cc(Br)cc(OC)c3oc2=O)c1` [Compound 35], the IC50 is reported as 12.8 ± 1.25 µM.
Work on `O=c1ccc2cc(Cl)ccc2o1` [Compound 2] yielded an IC50 greater than 50 µM.
With `COc1cc(-c2cc3cc(Cl)ccc3oc2=O)cc(OC)c1OC` [Compound 21] the IC50 was 25.5 ± 1.01 µM.
Molecule `COc1cccc2cc(-c3ccc(F)cc3)c(=O)oc12` [Compound 17] has an IC50 greater than 50 µM.
In the case of `COc1cc(Br)cc2cc(-c3cccc(OC(C)=O)c3)c(=O)oc12` [Compound 41], the IC50 is reported as greater than 50 µM.
`O=c1sc2ccccc2cc1-c1ccccc1` [Compound 65] showed an IC50 of 36.1 ± 1.65 µM.
In the case of `COc1ccc(-c2cc3ccccc3sc2=O)cc1` [Compound 66, 3-(4-Methoxyphenyl)-2H-thiochromen-2-one], the IC50 is reported as 35.6 ± 3.9 µM.
`O=c1ccc2ccccc2o1` [Compound 4] was tested, and the IC50 was 41 ± 5.4 µM.
`O=C(c1ccccc1)c1cc2c(ccc3ccccc32)oc1=O` [Compound 54] was tested, and the IC50 was 21.3 ± 2 µM.
For `COc1ccccc1-c1cc2cc(Cl)ccc2oc1=O` [Compound 20], the IC50 was greater than 50 µM.
For `COc1cc(Br)cc2cc(-c3cccnc3)c(=O)oc12` [Compound 44], the IC50 was greater than 50 µM.
`COc1cc(OC)c2c(-c3ccccc3)cc(=O)oc2c1` [Compound 60] was tested, and the IC50 was greater than 50 µM.
For `COc1cc(Br)cc2cc(-c3ccccc3)c(=O)oc12` [Compound 38], the IC50 was 40.9 ± 4.04 µM.
With `COc1cc(-c2cc3cccc(OC)c3oc2=O)cc(OC)c1OC` [Compound 14] the IC50 was 34.5 ± 3.3 µM.
`O=c1cc(-c2ccccc2)c2c(O)cc(O)cc2o1` [Compound 57] was tested, and the IC50 was greater than 50 µM.
Work on `O=c1cc(-c2ccccc2)c2c(OCc3ccccc3)cc(OCc3ccccc3)cc2o1` [Compound 61] yielded an IC50 greater than 50 µM.
Work on `O=c1ccc2cc(Cl)cc(Cl)c2o1` [Compound 3] yielded an IC50 greater than 50 µM.
In the case of `COc1cc(Br)cc2cc(-c3ccc(Cl)cc3)c(=O)oc12` [Compound 39], the IC50 is reported as 16.9 ± 4.26 µM.
`COc1cccc2cc(C(C)=O)c(=O)oc12` [Compound 47] was tested, and the IC50 was 14.6 ± 2.99 µM.
Work on `CC(C)(C)C(=O)c1cc2ccccc2oc1=O` [Compound 53] yielded an IC50 of 25 ± 2.4 µM.
`COc1cccc(-c2cc3ccccc3oc2=O)c1` [Compound 30] showed an IC50 of 39.3 ± 3.12 µM.
Work on `COc1ccc(-c2cc3ccccc3sc2=O)cc1OC` [Compound 67, 3-(3,4-Dimethoxyphenyl)-2H-thiochromen-2-one] yielded an IC50 of 11.1 ± 0.786 µM.
`COc1ccc(-c2cc3cccc(OC)c3oc2=O)cc1` [Compound 12] showed an IC50 of 22.8 ± 4.61 µM.
`COc1ccc(-c2cc3cccc(OC)c3oc2=O)cc1OC` [Compound 11] showed an IC50 of 29.7 ± 4.21 µM.
Molecule `COc1ccc(-c2cc3cc(Cl)cc(Cl)c3oc2=O)cc1OC` [Compound 23] has an IC50 of 17.4 ± 2.69 µM.
`COc1cc(Br)cc2cc(-c3cccc(O)c3)c(=O)oc12` [Compound 45] showed an IC50 greater than 50 µM.
In the case of `COc1ccc2oc(=O)ccc2c1` [Compound 5], the IC50 is reported as 35 ± 3.73 µM.
`COc1cc(-c2cc3cc(Br)cc(OC)c3oc2=O)cc(OC)c1OC` [Compound 37] showed an IC50 of 37.8 ± 5.43 µM.
Work on `COc1ccc(-c2cc3cc(Cl)ccc3oc2=O)cc1` [Compound 19] yielded an IC50 of 27 ± 2.38 µM.
In the case of `Cc1cc(=O)oc2cc(OCc3ccccc3)cc(OCc3ccccc3)c12` [Compound 59], the IC50 is reported as greater than 50 µM.
`COc1cc(Br)cc2cc(-c3ccc(O)cc3)c(=O)oc12` [Compound 46] was tested, and the IC50 was greater than 50 µM.
Work on `COc1ccc(-c2cc3cc(Cl)cc(Cl)c3oc2=O)cc1` [Compound 24] yielded an IC50 of 10 ± 3.65 µM.
With `O=c1oc2ccccc2cc1-c1ccccc1` [Compound 31] the IC50 was 35 ± 5.78 µM.
`COc1cccc2cc(-c3ccccc3)c(=O)oc12` [Compound 15] gave an IC50 of 31.5 ± 2.28 µM.
Molecule `Cc1cc(=O)oc2cc(O)cc(O)c12` [Compound 56] has an IC50 greater than 50 µM.
`COc1cc(Br)cc2cc(-c3ccc(F)cc3)c(=O)oc12` [Compound 40] gave an IC50 of 38.8 ± 4.83 µM.
Molecule `O=c1cc(O)c2ccccc2o1` [Compound 62] has an IC50 greater than 50 µM.
`CC(C)(C)c1cc(C(C)(C)C)c2oc(=O)ccc2c1` [Compound 9] was tested, and the IC50 was greater than 50 µM.
Molecule `COc1ccc(-c2cc3cc(Br)cc(OC)c3oc2=O)cc1OC` [Compound 33] has an IC50 of 46.3 ± 3.04 µM.
In the case of `COc1cccc2cc(C(=O)c3ccccc3)c(=O)oc12` [Compound 48], the IC50 is reported as 2.1 ± 0.372 µM.
`COc1ccc2ccc(=O)oc2c1` [Compound 10] gave an IC50 of 25.1 ± 5.81 µM.
`COc1ccc(OC)c(-c2cc3cc(Br)cc(OC)c3oc2=O)c1` [Compound 43] was tested, and the IC50 was greater than 50 µM.
`COc1cccc2cc(-c3ccc(Cl)cc3)c(=O)oc12` [Compound 16] gave an IC50 greater than 50 µM.
`COc1ccc(-c2cc3ccccc3oc2=O)cc1` [Compound 29] gave an IC50 of 37.4 ± 2.84 µM.
For `O=c1cc(OCc2ccccc2)c2ccccc2o1` [Compound 63], the IC50 was greater than 50 µM.
With `COc1cc(=O)oc2ccccc12` [Compound 64] the IC50 was 40.4 ± 2.87 µM.
`COc1cc(-c2cc3cc(Br)cc(OC)c3oc2=O)c(OC)c(OC)c1OC` [Compound 36] showed an IC50 of 33.6 ± 2.75 µM.
Work on `O=C(c1ccccc1)c1cc2ccccc2oc1=O` [Compound 52] yielded an IC50 of 27 ± 3.65 µM.
For `COc1cccc2ccc(=O)oc12` [Compound 1], the IC50 was greater than 50 µM.
For `O=C(c1ccccc1)c1cc2cc(Cl)ccc2oc1=O` [Compound 49], the IC50 was 4.12 ± 0.605 µM.
For `O=c1sc2ccccc2cc1-c1ccc(F)cc1` [Compound 68, 3-(4-Fluorophenyl)-2H-thiochromen-2-one], the IC50 was 32.2 ± 2.75 µM.
Molecule `COc1cccc(-c2cc3cc(Cl)cc(Cl)c3oc2=O)c1` [Compound 25] has an IC50 of 7.76 ± 2.93 µM.
Work on `COc1ccc2c(C)cc(=O)oc2c1` [Compound 55] yielded an IC50 greater than 50 µM.
With `O=c1oc2ccccc2cc1-c1ccc(F)cc1` [Compound 32] the IC50 was 37.7 ± 6.07 µM.
With `O=c1ccc2cc([N+](=O)[O-])ccc2o1` [Compound 8] the IC50 was 37.9 ± 3.45 µM.
`CC(=O)c1cc2ccccc2oc1=O` [Compound 51] was tested, and the IC50 was 25.9 ± 2.73 µM.
`COc1cccc(-c2cc3cc(Cl)cc(Cl)c3oc2=O)c1` [6,8-dichloro-3-(3-methoxyphenyl)-2H-chromen-2-one] showed an IC50 of 7.8 µM.
`O=c1oc2ccc(Cl)cc2cc1-c1ccc(Cl)cc1` [Compound 22] was tested, and the IC50 was 28 ± 2.01 µM.
With `COc1cccc(-c2cc3cccc(OC)c3oc2=O)c1` [Compound 13] the IC50 was 8.98 ± 2.74 µM.
Work on `COc1ccc(-c2cc3cc(Cl)ccc3oc2=O)cc1OC` [Compound 18] yielded an IC50 of 31 ± 2.81 µM.

What follows are molecules tested on HepG2 cells (assay: Cell viability assay (MTT) in HepG2 cells). Conditions: HepG2 cells transiently transfected with MARK4-knockdown vs control vectors.
Format: cell-based
Method: HepG2 and SMMC-7721 cells were cultured in DMEM medium (Gibco) supplemented with 10% FBS (Gibco, USA). For transient transfection, cells were transfected with DNA by Lipofectamine 2000 (Thermo fisher, USA).
HCC cells (100 μL/each well, 20,000 cells/mL) were seeded in a 96-well culture plate and allowed to grow for 24 h in DMEM medium supplemented with 10% FBS and 1% penicillin/streptomycin sulfate. The cells were then treated with drugs or vehicle control and incubated in a 5% CO2 incubator for indicated time. At the end of incubation, 10 μL of MTT stock solution (5 mg/mL) was added into each well. The plate was continued to be incubated at 37°C for 4 h before the medium was removed. Then, DMSO (100 μL) was added into each well, followed by thorough shaking. The absorbance of the formazan product was measured at 570 nm on Thermo Scientific Varioskan Flash Multimode Reader. The IC50 value was obtained by fitting dose-response data to a three parametric non-linear regression model using GraphPad Prism 6.0 software.
`CC(=O)O[C@H]1C(=O)[C@@]2(C)[C@H]([C@H](OC(=O)c3ccccc3)[C@]3(O)C[C@H](OC(=O)[C@H](O)[C@@H](NC(=O)c4ccccc4)c4ccccc4)C(C)=C1C3(C)C)[C@]1(OC(C)=O)CO[C@@H]1C[C@@H]2O` [paclitaxel] was tested, and the “sensitivity in MARK4-knockdown cells” value was “increased sensitivity”.

Same assay, conditions: Homo sapiens; HepG2 cells, MTT
Work on `COc1cccc(-c2cc3cc(Cl)cc(Cl)c3oc2=O)c1` [6,8-dichloro-3-(3-methoxyphenyl)-2H-chromen-2-one] yielded an IC50 of 15.9 µM.

The molecules below were run on HepG2 cells (assay: Cell apoptosis assay (Annexin V-FITC/PI flow cytometry) in HepG2 cells). Conditions: 2.5 μM alone.
Format: cell-based
Method: HCC cells (2 × 10^5 cells/well) were plated in a 6-well plate and treated with samples at 37°C for 36 h. After incubation, the cells were harvested and washed with ice-cold PBS. Annexin V-FITC-PI apoptosis detection kit (Abcam, USA) was used for a direct observation of viable, early apoptotic, and late apoptotic cells. Annexin V-FITC and propidium iodide were added according to the manufacturer's instructions, and the samples were incubated in the dark for 15 min. The apoptosis ratio was analyzed using BD FACSCalibur flow cytometry.
For `CC(=O)O[C@H]1C(=O)[C@@]2(C)[C@H]([C@H](OC(=O)c3ccccc3)[C@]3(O)C[C@H](OC(=O)[C@H](O)[C@@H](NC(=O)c4ccccc4)c4ccccc4)C(C)=C1C3(C)C)[C@]1(OC(C)=O)CO[C@@H]1C[C@@H]2O` [paclitaxel], the “apoptosis, single agent” value was “unable to trigger distinct apoptosis”.
